Experimental data published in the NIST ThermoML archive (doi:10.1016/j.jct.2014.02.009).

Details: 100 kPa, Liquid; for viscosity: Falling or rolling sphere viscometry; for speed of sound: Sing-around technique in a fixed-path interferometer; for mass density: Vibrating tube method

CC(=O)O.O=C1CCCN1 [γ-butyrolactam acetate]
Details | mass density [kg/m3] | speed of sound [m/s] | viscosity [mPa·s]
293.15 K | 1099.8 | 1514.5 | 9.36
298.15 K | 1095.35 | 1496.7 | 7.84
303.15 K | 1090.91 | 1480.9 | 6.66
308.15 K | 1086.47 | 1464 | 5.72
313.15 K | 1082.03 | 1447.2 | 4.96
318.15 K | 1077.57 | 1429.3 | 4.35
323.15 K | 1073.12 | 1412.5 | 3.83
328.15 K | 1068.69 | 1395.7 | 3.4
333.15 K | 1064.24 | 1379 | 3.06

O=C1CCCN1.O=CO [γ-butyrolactam formate]
Details | mass density [kg/m3] | speed of sound [m/s] | viscosity [mPa·s]
293.15 K | 1140.78 | 1531.2 | 7.17
298.15 K | 1136.14 | 1515.7 | 6.14
303.15 K | 1131.51 | 1500 | 5.32
308.15 K | 1126.89 | 1484.4 | 4.64
313.15 K | 1122.25 | 1468.5 | 4.09
318.15 K | 1117.61 | 1452.9 | 3.63
323.15 K | 1112.99 | 1437.5 | 3.25
328.15 K | 1108.35 | 1422.1 | 2.92
333.15 K | 1103.72 | 1406.8 | 2.65

CCCCCC(=O)O.O=C1CCCN1 [γ-butyrolactam hexanoate]
Details | mass density [kg/m3] | speed of sound [m/s] | viscosity [mPa·s]
293.15 K | 1018.78 | 1429.3 | 14.67
298.15 K | 1014.67 | 1412.8 | 12.13
303.15 K | 1010.57 | 1396.2 | 10.16
308.15 K | 1006.47 | 1379.6 | 8.63
313.15 K | 1002.37 | 1363.2 | 7.4
318.15 K | 998.27 | 1346.9 | 6.42
323.15 K | 994.17 | 1330.7 | 5.61
328.15 K | 990.08 | 1314.7 | 4.94
333.15 K | 985.98 | 1298.6 | 4.39

CC(=O)O.O=C1CCCCCN1 [ε-caprolactam acetate]
Details | mass density [kg/m3] | speed of sound [m/s] | viscosity [mPa·s]
293.15 K | 1060.03 | 1523.1 | 39.81
298.15 K | 1055.92 | 1507 | 29.03
303.15 K | 1051.83 | 1489.7 | 21.92
308.15 K | 1047.74 | 1472.8 | 17.03
313.15 K | 1043.65 | 1456.1 | 13.68
318.15 K | 1039.56 | 1439.3 | 11.1
323.15 K | 1035.46 | 1422.6 | 9.19
328.15 K | 1031.37 | 1406 | 7.67
333.15 K | 1027.28 | 1389.5 | 6.48

O=C1CCCCCN1.O=CO [ε-caprolactam formate]
Details | mass density [kg/m3] | speed of sound [m/s] | viscosity [mPa·s]
293.15 K | 1087.05 | 1552 | 30.96
298.15 K | 1082.87 | 1536 | 23.92
303.15 K | 1078.69 | 1520.2 | 18.86
308.15 K | 1074.51 | 1504.4 | 15.14
313.15 K | 1070.32 | 1488.5 | 12.36
318.15 K | 1066.13 | 1472.8 | 10.24
323.15 K | 1061.95 | 1457.9 | 8.59
328.15 K | 1057.77 | 1441.1 | 7.3
333.15 K | 1053.59 | 1425.1 | 6.27

CCCCCC(=O)O.O=C1CCCCCN1 [ε-caprolactam hexanoate]
Details | mass density [kg/m3] | speed of sound [m/s] | viscosity [mPa·s]
293.15 K | 998.59 | 1472.7 | 42
298.15 K | 994.69 | 1456 | 30.85
303.15 K | 990.78 | 1439 | 23.4
308.15 K | 986.88 | 1421.9 | 18.11
313.15 K | 982.97 | 1404.8 | 14.25
318.15 K | 979.04 | 1387.8 | 11.59
323.15 K | 975.15 | 1370.8 | 9.44
328.15 K | 971.24 | 1353.4 | 7.91
333.15 K | 967.34 | 1336.8 | 6.64
